Columns and labels:
[1] = tested on: inflammation markers IL-1, IL-6, and TNF-a; assay: Inflammation markers in CSF of HSV-1 infected rats; assay type: in vivo, rat; conditions: day 6, 1 or 10 pg intranasally twice daily, n=3
Description: To test that hypothesis, adult rats were infected by having a solution of the herpes simplex virus type 1 (HSV-1; strain 2762, batch 041028; 1.7×10^7 PFU/mL) instilled in their right nostril. Half of the animals received 10 min later 25 μL (1 or 10 pg) of AF-16 in their right nostril, and had thereafter the same dose of AF-16 instilled every morning at 8 AM and every night at 6 PM until the experiment was terminated on day 6. The other half of the HSV-1 infected rats received at the same time intervals 25 μL of the vehicle, phosphate buffered saline. On day 6, cerebrospinal fluid (CSF) samples were taken from the animals, either treated with AF-16 (n=3), or the vehicle (n=3), according to the procedure described by Huang, Saljo and Hansson (1996). […] It is concluded that treatment with AF-16 is not likely to improve the survival of rodents suffering from HSV-1 encephalitis by altering the inflammatory response, but by normalizing the intracranial pressure, thereby preventing prevalence of high ICP in a CC and thereby the development of a CS. The deleterious effects caused by the HSV-1 encephalitis were thus considered to be due to that AF hampered the development of a CS.

[2] = tested on: ICP after subarachnoidally deposited blood; assay: Cerebral CS induced by autologous blood in the subarachnoid space, ICP; assay type: in vivo, Sprague-Dawley rats
Source text: A different type of cerebral CS was induced by the injection of […] whole blood in the subarachnoid space, a procedure known from the literature to result in the development of brain oedema and elevated ICP. Anaesthetized adult rats had 50-350 pL heparinzed autologous blood deposited in the subarachnoid space through a small hole drilled in the occipital bone or by injection into the cistern magna through the atlanto-occipital membrane. Holes drilled in a skull bone were eventually plugged with SuperBond@ glue. Such treatments with subarachnoidally deposited blood increased the ICP, inducing the development of a CS in a day or within a week, the exact time depending on the conditions and amount of blood deposited, in agreement with reports in the medical literature. In our experiments, injection of 0.2-0.3 mL autologous, heparinized blood in the cisterna magna in adult Sprague-Dawley rats resulted within 1-3 days in an elevation of the ICP to 13 to 30 mm Hg, as assessed with an implanted miniature pressure light guided probe (Samba System 3200 & Samba Preclin 420 sensor; Samba Sensors AB, Gruvgatan 6, SE 42130 V. Frolunda, Sweden). The ICP in normal adult rats, either non-treated or having had phosphate buffered saline (PBS) injected instead, was 6-9 mm Hg. […] This means that AF-16 is abolishing and, in case of already established cerebral CS, reducing its severity. The prompt response to AF-16 was decisive for the beneficial effect exerted by AF-16.

pericardium = assay: Traumatized pericardium, fluid accumulation; assay type: in vivo, rat; conditions: treated for a week after rubbing of pericardium
Source text: Adult rats had experimentally a CC condition induced affecting the pericardium and assessed with regard to effects of treatment with the peptide AF-16. The pericardial cavity is delimiting the heart, forming a sac filled with a minimal volume of fluid, enabling accommodation of the sliding movements resulting from the sudden and forceful contractions of the heart. The pericardial cavity is towards its periphery enclosed by a parietal membrane rich in collagen. On anaesthetized rats the pericardium was opened surgically, through a small “window” in the diaphragm and mediastinum. The inside of the pericardium was traumatized by rubbing it surgically through the incision. These animals were divided in two groups, one treated with AF-16 while the other had just the vehicle, PBS. […] In contrast, those animals that after the rubbing had been treated with the vehicle had their pericardium filled with fluid under pressure, and had further numerous fibrin strands and inflammatory cells. Additionally, the parietal pericardial envelop was swollen, inflamed and infiltrated by numerous enlarged, in parts newly formed blood vessels.

intervertebral discs = assay: Injured or loaded intervertebral discs; assay type: in vivo, rodents, rabbits and pigs
Source text: The intervertebral discs, which separate the vertebral bodies in the spine, adjust their dimensions according to the actual load many times a day. The water content in the avascular nucleus pulposus and the annulus fibrosus in a disc is dependant on the supply of fluid, ions, nutrients and oxygen from adjacent ligaments and from the end plates of the vertebrae (Cf. Holm et al., 2007). Vast products from an avascular disc must pass through the same obstacles prior to reaching vascular systems. Therefore, rodents, rabbits and pigs have been assessed regarding effects of AF protein and of AF peptides with regard to effects on the intervertebral discs when loaded and unloaded. […] It is thus disclosed that the AF compounds are beneficial in reducing the swelling and tissue damage at trauma or deformation and/or excessive load on intervertebral discs.

Staphylococcus areus = assay: Yellow pigment retained in cultured Staphylococcus areus; assay type: cell-based; conditions: cultured over night or 2 days with AF-16, vs vehicle
Source text: Effects of AF was investigated in addition in prokaryotic cells, which are enclosed by a complex cell wall, thereby enabling the development of elevated pressure due to hampered membrane functions. That was done in bacteria, which synthesize and release a wide variety of substances that may cause damage to mammalian cells and thus to a body. Examples on such products are pigments, enzymes and toxins, which are transferred through the outer bacterial membrane to the extracellular environment. Inhibition of such membrane activities would reduce or even block the transfer and/or release of such pathogenic substances. In order to investigate if the peptide AF-16 affected the transfer of bacterial products from its synthesis in the bacterium to its environment, the following experiment was performed. The bacterium Staphylococcus areus, which synthesize a yellow pigment, was cultured over night or, occasionally for 2 days, in the presence or absence of the peptide AF-16. After a day or two was the bacterial culture rinsed, and then concentrated by centrifugation. The yellow pigment formed by the Staphylococcus areus was extracted from the permeabilized, pelleted bacteria with methanol and the light absorption determined by spectrometry.

With VCHSKTRSNPENNVGL [AF-16] the “IL-1 concentration in CSF vs vehicle” value [1] was “no significant difference in the concentrations”, the “IL-6 concentration in CSF vs vehicle” value [1] was “no significant difference in the concentrations” and the “TNF-a concentration in CSF vs vehicle” value [1] was “no significant difference in the concentrations”. The ICP after treatment ([2]; 25 pg AF-16 intranasally twice daily) was “almost normal levels”, the “brain, behavioral and motor function” value ([2]; 25 pg AF-16 intranasally twice daily, vs vehicle) was “neither signs of impaired brain function nor any gross obvious impairment of behavioral or motor functions” and the “time for elevated ICP to turn to almost normal levels” value ([2]; 25 pg AF-16 intranasally twice daily, elevated ICP 13 to 30 mm Hg, normal 6-9 mm Hg) was 1 to 2 h. The “extent and severity of brain damage” value ([2]; vs vehicle PBS) was “reduced the extent and severity of the brain damage”, the “fluid in pericardial cavity” value (pericardium) was “just minor accumulation of fluid in their pericardial cavity, at low pressure” and the “stiffness of intervertebral connections and deformation induced” value (intervertebral discs; after supramaximal loads or trauma, vs vehicle) was “closer to normal”. The “damage to nucleus pulposus (light microscopy)” value (intervertebral discs; in vivo) was “less damage to the nucleus pulposus”, the “swelling and inflammatory reactions of injured intervertebral discs” value (intervertebral discs; in vivo) was “reduced the swelling and the inflammatory reactions” and the “yellow pigment extracted from bacteria (light absorption), corrected for number of bacteria” value (Staphylococcus areus) was “much more of the yellow pigment”.
